{
  "source": "patent US9120798B2",
  "about": "“Amino-heteroaryl 7-hydroxy-spiropiperidine indolinyl antagonists of P2Y1 receptor” (priority 2012, dated 2015)",
  "key": {"[1]": {"tested_on": "human platelet rich plasma (PRP)", "test": "ADP induced platelet aggregation assay", "assay_type": "cell-based", "details": "5 min, read-out: PA IC50 (μM) @ 10 μM ADP", "procedure": "ADP Induced Platelet Aggregation Assay\nThe ability of P2Y1 antagonists covered in the present invention to inhibit platelet aggregation induced by 10 μM ADP was tested using human platelet rich plasma (PRP) as described in Platelet Protocols: Research and Clinical Laboratory Procedures (White, M. M. et al., Academic Press (1999)). Human blood was collected in 30 μM (final concentration in blood) argatroban (GSK) as the anticoagulant at a ratio of 1 ml per 9 ml of blood. The PRP was isolated by centrifugation at 170 g for 12 minutes. The platelet poor plasma (PPP) was used as the blank for optical aggregometry. Compounds of the present invention in DMSO solution was preincubated with 250 μl PRP at 37° C. for 1 minute with stirring speed of 1000 rpm. Aggregation was initiated by addition of 2.5 μl of 1 mM ADP (Chrono-log, Havertown, Pa.) for a final ADP concentration of 10 uM. Platelet aggregation was monitored using Optical Aggregometer (Chrono-log, Havertown, Pa.) and the area under the curve (AUC) at 5 minute was measured. IC50 was calculated using vehicle control as 0% inhibition.\nThe platelet aggregation assay measures the in vitro antiplatelet activity of a compound in platelet rich plasma. The assay is sensitive to plasma protein binding, and is believed to be a better predictor of actual in vivo activity."}, "[2]": {"target": "cloned human P2Y1 receptors (Homo sapiens (Human), UniProt P47900)", "sequence (P47900 whole entry)": "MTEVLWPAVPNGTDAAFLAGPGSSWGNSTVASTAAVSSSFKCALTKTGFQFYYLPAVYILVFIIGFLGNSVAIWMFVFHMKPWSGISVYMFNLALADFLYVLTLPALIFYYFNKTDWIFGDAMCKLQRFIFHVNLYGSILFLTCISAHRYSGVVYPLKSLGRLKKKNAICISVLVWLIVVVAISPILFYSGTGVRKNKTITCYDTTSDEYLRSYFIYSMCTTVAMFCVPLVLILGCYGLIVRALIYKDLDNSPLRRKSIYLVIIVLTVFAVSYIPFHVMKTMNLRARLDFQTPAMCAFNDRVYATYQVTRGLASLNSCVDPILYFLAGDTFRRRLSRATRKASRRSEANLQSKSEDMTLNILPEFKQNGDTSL", "test": "Binding Assay A: membrane binding assay, [33P] 2MeS-ADP, WGA FlashPlates", "details": "for Ki: read-out: P2Y1 Ki (nM), *Using binding assay A", "source_text": "A membrane binding assay was used to identify inhibitors of [^33P] […] The cDNA clone for human P2Y1 was obtained from Incyte Pharmaceuticals and its sequence confirmed by established techniques (for a compendium of techniques used see Ausubel, F. et al. Current Protocols in Molecular Biology, John Wiley and Sons, NY, N.Y. (1995)). The essential coding sequences were subcloned into pCDNA 3.1 (Invitrogen) to produce a P2Y1 expression construct. This construct was then transfected into the human embryonic kidney cell line HEK-293 and stable transfectants selected in GENETICIN® (G418 sulfate; Life Technologies). […] Membranes were prepared by growing HEK293 #49 in 150 mm dishes in DMEM/10% FBS in the presence of 1 mg/ml G418 until cells were 80-90% confluent. Plates were then washed with cold (4° C.) D-PBS twice and cells harvested by scraping into 10 mL D-PBS. Cells were pelleted by centrifugation (1,000 g, 10 min, 4° C.) and the resulting pellet resuspended in Lysis Buffer (10 mM Tris (7.4), 5 mM MgCl2 containing Complete protease inhibitor cocktail (Roche Cat #1873580) as recommended by the manufacturer). The suspension was then homogenized in a Dounce homogenizer (10-15 strokes; B pestle, on ice) and the homogenate spun at 1,000 g, 4° C., 5 min to pellet large debris. The supernatant was centrifuged at 150,000 g, 4° C., for 1 hour and the resulting membrane pellet resuspended in 0.5-1 mL of Buffer B (15 mM HEPES (7.4), 145 mM NaCl, 0.1 mM MgCl2, 5 mM EDTA, 5 mM KCl) and stored at −70° C. until used.\nBinding reactions were performed in WGA FlashPlates (PerkinElmer Life Sciences, Cat # SMP105A) in a volume of 200 μL containing ˜45 fmol of P2Y1 receptor (5 μg of total protein), 0.5 nM [^33P] […] Reactions were allowed to proceed to completion at room temperature for 1 hour and then the aqueous solution aspirated. Plates were sealed and the residual [^33P] bound to the plate determined by scintillation counting."}, "[3]": {"details": "starred values, FlashPlate, 0.5 nM [33P] 2MeS-ADP, Cheng-Prusoff"}},
  "note": "pKi: −log10 of the molar value. Where two headings read alike, the source gives them in different places.",
  "data": [
    {"smiles": "CC(C)(C)CN1CCC2(CC1)CN(c1ccccc1Nc1nnc(-c3cccnc3)s1)c1c(O)ccc(Cl)c12", "note": "[Example 9, 4-Chloro-1′-neopentyl-1-(2-((5-(pyridin-3-yl)-1,3,4-thiadiazol-2-yl)amino)phenyl)spiro[indoline-3,4′-piperidin]-7-ol]", "values": [
      {"measurement": "IC50", "setting": "[1]", "value": 8.5, "unit": "µM"},
      {"measurement": "pKi", "setting": "[2]", "value": 7.61}
    ]},
    {"smiles": "CC(C)(C)CN1CCC2(CC1)CN(c1ccccc1Nc1nnc(-c3cnccn3)s1)c1c(O)ccc(Cl)c12", "note": "[Example 12, 4-Chloro-1′-neopentyl-1-(2-((5-(pyrazin-2-yl)-1,3,4-thiadiazol-2-yl)amino)phenyl)spiro[indoline-3,4′-piperidin]-7-ol]", "values": [
      {"measurement": "IC50", "setting": "[1]", "value": 0.9, "unit": "µM"},
      {"measurement": "Ki", "setting": "[2]; [3]", "value": 6.5, "unit": "nM"}
    ]},
    {"smiles": "Cc1cc(-c2nnc(Nc3ccccc3N3CC4(CCN(CC(C)(C)C)CC4)c4c(Cl)ccc(O)c43)s2)n(C)n1", "note": "[Example 13, 4-Chloro-1-(2-((5-(1,3-dimethyl-1H-pyrazol-5-yl)-1,3,4-thiadiazol-2-yl)amino)phenyl)-1′-neopentylspiro[indoline-3,4′-piperidin]-7-ol]", "values": [
      {"measurement": "IC50", "setting": "[1]", "value": 0.9, "unit": "µM"},
      {"measurement": "Ki", "setting": "[2]; [3]", "value": 6.6, "unit": "nM"}
    ]},
    {"smiles": "CC(C)(C)CN1CCC2(CC1)CN(c1ccccc1Nc1nnc(C3CCOCC3)s1)c1c(O)ccc(Cl)c12", "note": "[Example 14, 4-Chloro-1′-neopentyl-1-(2-((5-(tetrahydro-2H-pyran-4-yl)-1,3,4-thiadiazol-2-yl)amino)phenyl)spiro[indoline-3,4′-piperidin]-7-ol]", "values": [
      {"measurement": "IC50", "setting": "[1]", "value": 23, "unit": "µM"},
      {"measurement": "Ki", "setting": "[2]", "value": 155, "unit": "nM"}
    ]},
    {"smiles": "CC(C)(C)CN1CCC2(CC1)CN(c1ccccc1Nc1nnc(-c3ccc(C(F)(F)F)nc3)s1)c1c(O)ccc(Cl)c12", "note": "[Example 15, 4-Chloro-1′-neopentyl-1-(2-((5-(6-(trifluoromethyl)pyridin-3-yl)-1,3,4-thiadiazol-2-yl)amino)phenyl)spiro[indoline-3,4′-piperidin]-7-ol]", "values": [
      {"measurement": "IC50", "setting": "[1]", "value": 1.6, "unit": "µM"},
      {"measurement": "pKi", "setting": "[2]", "value": 8.24}
    ]}
  ]
}
